Measurements from PubChem BioAssay (NCI).
Several values for one entry are separate records, joined by “and”; a condition that tells them apart may be missing. Equal values may be shown once.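 Growth conditions: 96-well plates. Treatment: test compound, 48 hours, 5 concentrations. Analysis: linear interpolation between bracketing concentrations; unreached endpoints set to highest concentration. Definition used: TGI = concentration required for complete inhibition of growth.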 *1 amine or outer side, *2 acyl side, *3 side chain or, on linkers, in order; H or OH if unused. Where a SMILES comes first, the peptide text is derived from it. Bridges are numbered along the chain shown (N, C = ends). [ ]: non-standard residue; d: D form. ξ: configuration not given here. X4 = CCC(C)C(N[*:1])C(O)CC(=O)O[C@H](C(=O)C(C)C(=O)[*:2])C(C)C; NMeY = CN[C@@H](Cc1ccc(O)cc1)C(=O)O; ξNMeL = CNC(CC(C)C)C(=O)O; ξT = CC(O)C(N)C(=O)O

Legend:
Assay in all cases: growth of human tumour cells (NCI), 48 h
[1] = tested on: SNB-19 CNS
[2] = tested on: HCT-116 colon
[3] = tested on: LOX IMVI melanoma
[4] = tested on: SK-MEL-5 melanoma
[5] = tested on: HOP-62 NSCLC
[6] = tested on: SK-OV-3 ovarian
[7] = tested on: OVCAR-4 ovarian
[8] = tested on: TK-10 renal
[9] = tested on: BT-549 breast
[10] = tested on: T-47D breast

| SMILES | TGI [1] [µM] | TGI [2] [µM] | TGI [3] | TGI [4] [µM] | TGI [5] [µM] | TGI [6] [µM] | TGI [7] | TGI [8] | TGI [9] [µM] | TGI [10] [µM] |
| --- | --- | --- | --- | --- | --- | --- | --- | --- | --- | --- |
| NC(=O)COc1ccccc1 | > 100 | > 100 | > 100 µM | > 100 | > 100 | > 100 | > 100 µM | > 100 µM |  |  |
| COc1ccc(NC2Oc3cc4c(cc3C(c3cc(OC)c(O)c(OC)c3)C2C)OCO4)cc1 (stereo not drawn) | > 100 | 29.6 |  | 4.34 |  |  | > 100 µM | 17.7 µM | > 100 | > 100 |
| OCCN=C1Nc2ccc(Cl)cc2C(=S)N2CSC[C@@H]12 | > 100 | > 100 |  | > 100 | > 100 | > 100 | > 100 µM |  |  | > 100 |
| CCC(C)C1NC(=O)C(NC(=O)C(CC(C)C)N(C)C(=O)[C@@H]2CCCN2)C(C)OC(=O)[C@H](Cc2ccc(OC)cc2)N(C)C(=O)[C@@H]2CCCN2C(=O)[C@H](CC(C)C)NC(=O)C(C)C(=O)[C@H](C(C)C)OC(=O)CC1O (stereo partly drawn) (H-P[ξNMeL][ξT][X4]LP[NMeY](Me); ester 3-C) | 0.0398 |  | 0.00206 µM and 0.0101 µM | 0.00748 | 0.00782 | 0.0177 | 0.00369 µM and 0.0185 µM | 0.027 µM and 0.141 µM | 0.0104 |  |
| O=C(N=Nc1ccccc1Br)NNc1ccccc1Br | > 100 | > 100 | > 100 µM | > 100 | > 100 |  | > 100 µM | > 100 µM | > 100 | > 100 |
| CCOP(=O)(OCC)C(Nc1ccc(F)cc1)c1cccc([N+](=O)[O-])c1 (stereo not drawn) | > 100 | > 100 | > 100 µM | > 100 | > 100 | > 100 | > 100 µM | > 100 µM | > 100 |  |
